ChEMBL document CHEMBL4800728, “Data for DCP probe JNJ-54119936” (2021)
Activity calls are given as the source filed them. The rule behind the calls is not given here.

Legend:
[1] = target: Insulin receptor (Homo sapiens) (UniProt P06213); test: INSR Invitrogen kinase panel; conditions: Compound concentration 10.0 uM
[2] = target: Sigma intracellular receptor 2 (Homo sapiens, UniProt Q5BJF2); conditions: Compound concentration 10.0 uM
[3] = target: 5-hydroxytryptamine receptor 5A (Homo sapiens) (UniProt P47898); test: 5-HT5A (h) CEREP screen
[4] = target: Neuromedin-K receptor (Homo sapiens) (UniProt P29371); test: NK3 (h) CEREP screen
[5] = target: Melatonin receptor type 1A (Homo sapiens) (UniProt P48039); test: MT1 (ML1A) (h) CEREP screen; conditions: Compound concentration 10.0 uM
[6] = target: Nuclear receptor ROR-beta (Homo sapiens) (UniProt Q92753); test: ThermoFluor Binding Assay (RORB)
Bile acid receptor = Bile acid receptor (Homo sapiens, UniProt Q96RI1); test: FXR In-house nuclear receptor screen
[7] = target: Calcium/calmodulin-dependent protein kinase type II subunit beta (Homo sapiens) (UniProt Q13554); test: CaMKIIbeta Invitrogen kinase panel; conditions: Compound concentration 10.0 uM
[8] = target: Fibroblast growth factor receptor 1 (Homo sapiens) (UniProt P11362); test: FGFR1 Invitrogen kinase panel; conditions: Compound concentration 10.0 uM
[9] = target: NT-3 growth factor receptor (Homo sapiens) (UniProt Q16288); test: TrkC Invitrogen kinase panel; conditions: Compound concentration 10.0 uM
[10] = target: Serine/threonine-protein kinase pim-2 (Homo sapiens) (UniProt Q9P1W9); test: Pim2 Invitrogen kinase panel; conditions: Compound concentration 10.0 uM
[11] = target: Peroxisome proliferator-activated receptor alpha (Homo sapiens, UniProt Q07869); test: (§1) PPARalpha In-house nuclear receptor screen
[12] = target: Peroxisome proliferator-activated receptor alpha (Homo sapiens) (UniProt Q07869); test: as §1; conditions: Compound concentration 3.0 uM
[13] = target: Ephrin type-A receptor 2 (Homo sapiens) (UniProt P29317); test: EphA2 Invitrogen kinase panel; conditions: Compound concentration 10.0 uM
[14] = target: Nuclear receptor ROR-gamma (Homo sapiens, UniProt P51449); test: One-hybrid LBD; set-up: compound concentration 6 uM
[15] = target: Thyroid hormone receptor beta (Homo sapiens) (UniProt P10828); test: TRbeta Indigo Bioscience nuclear receptor screen; conditions: Compound concentration 0.3 uM
[16] = target: Oxysterols receptor LXR-alpha (Homo sapiens) (UniProt Q13133); test: LXRalpha Indigo Bioscience nuclear receptor screen; conditions: Compound concentration 0.3 uM
[17] = target: Glycogen synthase kinase-3 alpha (Homo sapiens) (UniProt P49840); test: GSK3alpha Invitrogen kinase panel; conditions: Compound concentration 10.0 uM
[18] = target: T1, Oxysterols receptor LXR-beta (Homo sapiens) (UniProt P55055); test: (§2) LXRbeta In-house nuclear receptor screen; conditions: Compound concentration 3.0 uM
T1 sequence (whole entry): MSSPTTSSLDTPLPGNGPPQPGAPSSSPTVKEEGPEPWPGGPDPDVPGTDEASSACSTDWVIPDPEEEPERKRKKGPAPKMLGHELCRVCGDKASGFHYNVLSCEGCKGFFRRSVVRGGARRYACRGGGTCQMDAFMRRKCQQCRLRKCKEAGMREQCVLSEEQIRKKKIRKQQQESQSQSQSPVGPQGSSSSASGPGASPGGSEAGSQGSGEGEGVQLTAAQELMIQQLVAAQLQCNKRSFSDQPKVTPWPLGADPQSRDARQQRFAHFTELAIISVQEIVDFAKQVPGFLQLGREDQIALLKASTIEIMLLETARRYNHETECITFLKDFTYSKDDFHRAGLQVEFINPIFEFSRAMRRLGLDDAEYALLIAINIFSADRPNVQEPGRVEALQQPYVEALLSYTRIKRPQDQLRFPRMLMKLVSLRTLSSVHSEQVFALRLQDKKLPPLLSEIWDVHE

[19] = target: Oxysterols receptor LXR-beta (Homo sapiens, UniProt P55055); test: as §2
[20] = target: D(1B) dopamine receptor (Homo sapiens) (UniProt P21918); conditions: Compound concentration 10.0 uM
[21] = target: Sigma non-opioid intracellular receptor 1 (Homo sapiens, UniProt Q99720); test: GPCRScan assay: inhibition of Sigma 1; set-up: radioligand conc. used [nm] 4.0 – 5.0, parental cells HEKT
[22] = target: Insulin-like growth factor 1 receptor (Homo sapiens) (UniProt P08069); test: IGF-1R Invitrogen kinase panel; conditions: Compound concentration 10.0 uM
[23] = target: Alpha-2C adrenergic receptor (Homo sapiens) (UniProt P18825); conditions: Compound concentration 10.0 uM
[24] = target: Alpha-1D adrenergic receptor (Homo sapiens) (UniProt P25100); conditions: Compound concentration 10.0 uM
[25] = target: Peroxisome proliferator-activated receptor delta (Homo sapiens, UniProt Q03181); test: (§3) PPARdelta In-house nuclear receptor screen
[26] = target: T2, Peroxisome proliferator-activated receptor delta (Homo sapiens) (UniProt Q03181); test: as §3; conditions: Compound concentration 3.0 uM
T2 sequence (whole entry): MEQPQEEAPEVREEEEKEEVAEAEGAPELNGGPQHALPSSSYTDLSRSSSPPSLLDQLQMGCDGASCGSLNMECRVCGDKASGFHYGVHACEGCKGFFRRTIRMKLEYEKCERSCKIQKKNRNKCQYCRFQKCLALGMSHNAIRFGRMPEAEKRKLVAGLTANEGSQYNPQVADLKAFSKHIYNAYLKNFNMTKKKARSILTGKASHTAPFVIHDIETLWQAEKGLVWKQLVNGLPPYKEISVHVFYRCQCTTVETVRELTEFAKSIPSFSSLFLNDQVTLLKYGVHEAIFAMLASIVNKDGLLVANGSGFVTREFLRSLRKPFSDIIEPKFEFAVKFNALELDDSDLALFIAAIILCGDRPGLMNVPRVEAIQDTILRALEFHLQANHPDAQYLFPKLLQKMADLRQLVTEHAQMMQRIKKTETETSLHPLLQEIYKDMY

[27] = target: Ribosomal protein S6 kinase alpha-2 (Homo sapiens) (UniProt Q15349); test: Rsk3 Invitrogen kinase panel; conditions: Compound concentration 10.0 uM
[28] = target: Casein kinase II subunit alpha (Homo sapiens) (UniProt P68400); test: CK2alpha1 Invitrogen kinase panel; conditions: Compound concentration 10.0 uM
[29] = target: Serine/threonine-protein kinase Nek2 (Homo sapiens) (UniProt P51955); test: NEK2 Invitrogen kinase panel; conditions: Compound concentration 10.0 uM
[30] = target: Serine/threonine-protein kinase PAK 3 (Homo sapiens) (UniProt O75914); test: PAK3 Invitrogen kinase panel; conditions: Compound concentration 10.0 uM
[31] = target: Protein kinase C beta type (Homo sapiens) (UniProt P05771); test: PKCbetaI Invitrogen kinase panel; conditions: Compound concentration 10.0 uM
[32] = target: GABA-A receptor; anion channel (Homo sapiens) (UniProt P14867+P47870+P18507+P28472+P48169+Q99928+Q9UN88+P34903+O00591+O14764+Q8N1C3+P18505+P78334+P47869+P31644+Q16445); test: GABA (non selective) CEREP screen; format: protein-complex assay; conditions: Compound concentration 1.0 uM
[33] = target: D(2) dopamine receptor (Homo sapiens) (UniProt P14416); conditions: Compound concentration 10.0 uM
[34] = target: Estrogen receptor beta (Homo sapiens) (UniProt Q92731); test: ERbeta Indigo Bioscience nuclear receptor screen
Estrogen receptor beta (Homo sapiens), sequence (Q92731 whole entry): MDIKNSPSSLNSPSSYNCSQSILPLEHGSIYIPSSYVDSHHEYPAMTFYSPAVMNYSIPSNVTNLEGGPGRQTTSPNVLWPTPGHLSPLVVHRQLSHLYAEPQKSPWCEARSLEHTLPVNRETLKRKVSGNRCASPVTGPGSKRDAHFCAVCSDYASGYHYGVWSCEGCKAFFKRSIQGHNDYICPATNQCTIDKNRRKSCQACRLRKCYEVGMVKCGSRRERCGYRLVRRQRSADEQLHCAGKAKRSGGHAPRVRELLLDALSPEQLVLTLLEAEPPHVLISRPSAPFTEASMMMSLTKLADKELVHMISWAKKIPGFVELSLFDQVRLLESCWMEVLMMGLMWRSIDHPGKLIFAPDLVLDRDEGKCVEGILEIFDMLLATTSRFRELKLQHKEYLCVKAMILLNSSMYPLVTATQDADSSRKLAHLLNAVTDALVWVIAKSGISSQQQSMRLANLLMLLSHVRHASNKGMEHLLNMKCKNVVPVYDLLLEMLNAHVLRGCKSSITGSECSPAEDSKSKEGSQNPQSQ

Neuromedin-K receptor (Homo sapiens), sequence (P29371 whole entry): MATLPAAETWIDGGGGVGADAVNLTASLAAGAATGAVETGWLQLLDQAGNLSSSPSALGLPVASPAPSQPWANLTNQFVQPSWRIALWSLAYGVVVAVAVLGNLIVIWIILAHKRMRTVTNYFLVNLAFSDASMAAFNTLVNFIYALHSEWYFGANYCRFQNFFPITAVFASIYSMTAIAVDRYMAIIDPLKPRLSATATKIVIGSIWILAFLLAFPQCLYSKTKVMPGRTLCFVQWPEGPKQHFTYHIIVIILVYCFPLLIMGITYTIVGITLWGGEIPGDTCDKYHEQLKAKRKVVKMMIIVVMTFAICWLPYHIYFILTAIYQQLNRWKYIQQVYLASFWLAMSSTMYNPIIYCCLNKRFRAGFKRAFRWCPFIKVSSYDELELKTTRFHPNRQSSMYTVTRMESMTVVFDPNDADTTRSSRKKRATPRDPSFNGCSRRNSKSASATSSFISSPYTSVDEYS
5-hydroxytryptamine receptor 5A (Homo sapiens), sequence (P47898 whole entry): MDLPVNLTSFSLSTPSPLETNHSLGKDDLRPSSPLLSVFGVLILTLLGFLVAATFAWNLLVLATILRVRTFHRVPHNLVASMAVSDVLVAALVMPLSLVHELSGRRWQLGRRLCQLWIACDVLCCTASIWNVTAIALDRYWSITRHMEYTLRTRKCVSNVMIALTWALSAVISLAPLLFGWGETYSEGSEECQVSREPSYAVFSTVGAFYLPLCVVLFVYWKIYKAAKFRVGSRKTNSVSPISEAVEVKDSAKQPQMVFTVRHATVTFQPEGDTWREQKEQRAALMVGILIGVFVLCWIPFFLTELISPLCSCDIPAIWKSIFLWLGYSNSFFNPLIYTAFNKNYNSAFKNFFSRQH
Sigma non-opioid intracellular receptor 1, sequence (Q99720 whole entry): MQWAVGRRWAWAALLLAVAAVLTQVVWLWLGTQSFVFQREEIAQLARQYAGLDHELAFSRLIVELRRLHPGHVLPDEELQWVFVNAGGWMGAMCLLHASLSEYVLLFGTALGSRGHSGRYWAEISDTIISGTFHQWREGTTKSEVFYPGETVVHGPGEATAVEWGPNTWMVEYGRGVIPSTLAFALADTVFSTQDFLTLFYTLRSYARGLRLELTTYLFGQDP
Casein kinase II subunit alpha (Homo sapiens), sequence (P68400 whole entry, looked up): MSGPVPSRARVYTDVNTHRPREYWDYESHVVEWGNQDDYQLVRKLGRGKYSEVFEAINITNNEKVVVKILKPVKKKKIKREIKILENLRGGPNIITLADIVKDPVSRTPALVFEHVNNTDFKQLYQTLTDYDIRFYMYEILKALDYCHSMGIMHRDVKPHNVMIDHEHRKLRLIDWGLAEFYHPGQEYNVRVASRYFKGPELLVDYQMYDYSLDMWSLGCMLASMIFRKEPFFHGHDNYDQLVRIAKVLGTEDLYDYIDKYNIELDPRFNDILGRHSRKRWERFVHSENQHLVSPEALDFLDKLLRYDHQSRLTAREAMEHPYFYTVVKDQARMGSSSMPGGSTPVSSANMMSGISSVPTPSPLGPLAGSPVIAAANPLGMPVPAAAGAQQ
Peroxisome proliferator-activated receptor alpha (Homo sapiens), sequence (Q07869 whole entry): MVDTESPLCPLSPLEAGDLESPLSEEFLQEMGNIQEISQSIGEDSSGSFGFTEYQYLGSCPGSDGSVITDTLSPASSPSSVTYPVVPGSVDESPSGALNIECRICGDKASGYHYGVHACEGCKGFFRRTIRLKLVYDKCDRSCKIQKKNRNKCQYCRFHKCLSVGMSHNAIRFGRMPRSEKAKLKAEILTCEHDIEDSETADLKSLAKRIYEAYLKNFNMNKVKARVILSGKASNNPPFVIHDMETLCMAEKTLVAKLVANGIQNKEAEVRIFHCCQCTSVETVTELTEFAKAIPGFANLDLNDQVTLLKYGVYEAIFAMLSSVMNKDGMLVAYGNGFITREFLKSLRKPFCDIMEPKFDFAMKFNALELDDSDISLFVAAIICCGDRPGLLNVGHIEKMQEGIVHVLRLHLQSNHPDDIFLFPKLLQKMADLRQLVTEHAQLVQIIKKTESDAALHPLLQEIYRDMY
Peroxisome proliferator-activated receptor alpha, sequence (Q07869 whole entry): as above
Alpha-2C adrenergic receptor (Homo sapiens), sequence (P18825 whole entry): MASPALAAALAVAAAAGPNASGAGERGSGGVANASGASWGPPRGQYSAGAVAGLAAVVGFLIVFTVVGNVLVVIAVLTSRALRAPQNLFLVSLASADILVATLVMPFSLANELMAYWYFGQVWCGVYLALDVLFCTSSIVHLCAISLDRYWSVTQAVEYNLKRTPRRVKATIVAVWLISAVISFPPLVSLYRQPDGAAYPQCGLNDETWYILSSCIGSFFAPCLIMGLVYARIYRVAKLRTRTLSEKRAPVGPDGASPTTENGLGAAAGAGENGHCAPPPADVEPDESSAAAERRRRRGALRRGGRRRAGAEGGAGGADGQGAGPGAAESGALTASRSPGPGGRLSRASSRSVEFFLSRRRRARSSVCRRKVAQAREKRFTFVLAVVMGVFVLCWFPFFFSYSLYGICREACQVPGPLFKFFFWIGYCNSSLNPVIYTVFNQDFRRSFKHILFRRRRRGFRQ
Glycogen synthase kinase-3 alpha (Homo sapiens), sequence (P49840 2-483 limits assumed): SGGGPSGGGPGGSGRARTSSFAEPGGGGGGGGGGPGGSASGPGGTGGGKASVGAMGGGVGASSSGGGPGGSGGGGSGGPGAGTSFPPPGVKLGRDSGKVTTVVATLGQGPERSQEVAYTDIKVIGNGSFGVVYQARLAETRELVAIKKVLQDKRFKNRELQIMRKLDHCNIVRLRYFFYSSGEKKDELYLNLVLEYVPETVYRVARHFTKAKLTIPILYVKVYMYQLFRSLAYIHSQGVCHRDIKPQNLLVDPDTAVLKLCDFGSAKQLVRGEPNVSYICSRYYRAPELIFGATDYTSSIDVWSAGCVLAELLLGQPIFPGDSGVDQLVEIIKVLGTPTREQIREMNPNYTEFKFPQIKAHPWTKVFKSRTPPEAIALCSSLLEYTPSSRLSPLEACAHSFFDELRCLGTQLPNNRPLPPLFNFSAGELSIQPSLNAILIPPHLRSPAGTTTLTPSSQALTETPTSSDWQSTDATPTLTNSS
Protein kinase C beta type (Homo sapiens), sequence (P05771 2-671 limits assumed): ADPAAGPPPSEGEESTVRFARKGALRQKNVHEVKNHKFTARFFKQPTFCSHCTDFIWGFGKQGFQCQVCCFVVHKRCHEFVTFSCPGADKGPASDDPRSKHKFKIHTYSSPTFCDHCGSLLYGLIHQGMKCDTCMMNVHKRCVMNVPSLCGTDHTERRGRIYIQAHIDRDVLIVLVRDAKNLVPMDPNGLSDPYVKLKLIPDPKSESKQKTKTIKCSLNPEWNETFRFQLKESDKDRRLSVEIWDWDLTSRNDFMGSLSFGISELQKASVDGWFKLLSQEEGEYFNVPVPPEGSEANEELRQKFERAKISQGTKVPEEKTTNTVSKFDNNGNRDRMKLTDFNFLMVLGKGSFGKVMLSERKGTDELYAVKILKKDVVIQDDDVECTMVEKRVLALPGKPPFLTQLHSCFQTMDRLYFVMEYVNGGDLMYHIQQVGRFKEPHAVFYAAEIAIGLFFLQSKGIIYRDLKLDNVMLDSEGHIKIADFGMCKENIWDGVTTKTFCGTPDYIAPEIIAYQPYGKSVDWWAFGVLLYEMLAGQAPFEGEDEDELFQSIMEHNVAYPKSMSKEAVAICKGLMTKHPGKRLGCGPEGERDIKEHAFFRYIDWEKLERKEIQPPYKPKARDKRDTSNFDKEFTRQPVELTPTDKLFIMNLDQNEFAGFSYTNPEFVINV
Ribosomal protein S6 kinase alpha-2 (Homo sapiens), sequence (Q15349 whole entry): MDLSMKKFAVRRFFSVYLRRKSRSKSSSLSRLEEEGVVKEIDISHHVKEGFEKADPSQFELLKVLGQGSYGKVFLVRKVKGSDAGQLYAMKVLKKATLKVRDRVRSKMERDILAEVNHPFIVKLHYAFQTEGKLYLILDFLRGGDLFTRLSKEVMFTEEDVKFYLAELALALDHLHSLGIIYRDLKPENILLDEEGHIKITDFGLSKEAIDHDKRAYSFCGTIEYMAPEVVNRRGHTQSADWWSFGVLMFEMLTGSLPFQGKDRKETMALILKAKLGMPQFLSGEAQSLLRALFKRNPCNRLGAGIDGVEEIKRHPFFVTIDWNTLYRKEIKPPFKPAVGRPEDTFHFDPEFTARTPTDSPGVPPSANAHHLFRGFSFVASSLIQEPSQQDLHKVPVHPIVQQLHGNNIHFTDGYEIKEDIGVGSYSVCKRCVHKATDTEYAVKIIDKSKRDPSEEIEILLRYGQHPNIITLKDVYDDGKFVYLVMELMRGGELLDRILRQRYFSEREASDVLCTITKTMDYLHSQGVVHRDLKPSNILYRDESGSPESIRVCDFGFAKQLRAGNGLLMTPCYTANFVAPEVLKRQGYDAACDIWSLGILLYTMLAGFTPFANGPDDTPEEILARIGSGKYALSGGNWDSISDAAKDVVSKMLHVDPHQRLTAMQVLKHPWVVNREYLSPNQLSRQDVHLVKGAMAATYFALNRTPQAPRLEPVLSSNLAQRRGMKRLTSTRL

inhibition [1]: 3%
inhibition [2]: 65.8%
inhibition ([3]; Compound concentration 1.0 uM): 13%
inhibition ([3]; Compound concentration 10.0 uM): 23%
inhibition ([4]; Compound concentration 1.0 uM): 18%
inhibition ([4]; Compound concentration 10.0 uM): 22%
inhibition [5]: 20%
qKD [6]: > 75 µM
IC50 (Bile acid receptor): 5.8 µM
inhibition [7]: 7%
inhibition [8]: -2%
inhibition [9]: 3%
inhibition [10]: 1%
IC50 [11]: ~5 µM
inhibition [12]: 17%
inhibition [13]: 6%
IC50 [14]: 0.03 µM (active)
inhibition [15]: 1.13%
inhibition [16]: -3.25%
inhibition [17]: -4%
inhibition [18]: 10%
IC50 [19]: ~5 µM
inhibition [20]: 33.9%
Ki ([21]; read-out: Ki): 3.13 µM
Ki ([21]; read-out: pKi (converted)): 3.02 µM
inhibition [22]: 6%
inhibition [23]: 39.8%
inhibition [24]: 6.64%
IC50 [25]: 5.9 µM
inhibition [26]: 37.3%
inhibition [27]: 11%
inhibition [28]: 2%
inhibition [29]: 3%
inhibition [30]: 6%
inhibition [31]: 1%
inhibition [32]: 12%
inhibition [33]: 12.5%
inhibition ([34]; Compound concentration 0.3 uM): 1.77%
inhibition ([34]; Compound concentration 1.0 uM): 7.87%
inhibition ([34]; Compound concentration 3.0 uM): 14.8%
SMILES: COc1nc2ccc([C@@](O)(c3ccccc3)C3CCN(C(C)=O)CC3)cc2c(Cl)c1Cc1ccc(-n2cccn2)cc1 [JNJ-54119936]
